Assay [1] can be described thus: ADAM10 inhibitors, peptide cleavage, dose response, biochemical, QFRET (AID 743254).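 Note: ADAM10 enzyme with the DM2 quenched FRET peptide as substrate; EDANS fluorescence gain as the protease cuts the substrate; inhibitor potency against ADAM10 proteolytic activity.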
Assay [2] has as its target Disintegrin and metalloproteinase domain-containing protein 17 (Homo sapiens, UniProt P78536). Nature of the assay: ADAM17 protease inhibitors, dose response, counter-screen for ADAM10 exosite inhibitor project, biochemical, quenched FRET substrate (AID 743253). For orientation: The purpose of a counterscreen is to sort out artefacts and off-target activity.
Assay [3] deals with 1-phosphatidylinositol 4,5-bisphosphate phosphodiesterase gamma-1 (Homo sapiens, UniProt P19174). Nature of the assay: Counterscreen for inhibitors of phospholipase C isozymes (PLC-B3): Fluorescence-based biochemical high throughput dose response assay to identify inhibitors of phospholipase C isozymes (PLC-gamma1).
For assay [4], the target named is 1-phosphatidylinositol 4,5-bisphosphate phosphodiesterase beta-3 (Homo sapiens, UniProt Q01970). The experiment in a line: Fluorescence-based biochemical high throughput dose response assay to identify inhibitors of phospholipase C isozymes (PLC-B3).
The target in assay [5] is T1, Oxysterols receptor LXR-beta (Homo sapiens, UniProt P55055).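 Note: agonist activity at LXR measured by a cell-based luminescence readout across a dose range, run as a counterscreen for daf-12 agonists; HEK293 cells with Gal4-LXR fusion and GAL4-driven luciferase reporter; potency for activation of Gal4-LXR reporter so compounds are agonists.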
T1 sequence (P55055 whole entry): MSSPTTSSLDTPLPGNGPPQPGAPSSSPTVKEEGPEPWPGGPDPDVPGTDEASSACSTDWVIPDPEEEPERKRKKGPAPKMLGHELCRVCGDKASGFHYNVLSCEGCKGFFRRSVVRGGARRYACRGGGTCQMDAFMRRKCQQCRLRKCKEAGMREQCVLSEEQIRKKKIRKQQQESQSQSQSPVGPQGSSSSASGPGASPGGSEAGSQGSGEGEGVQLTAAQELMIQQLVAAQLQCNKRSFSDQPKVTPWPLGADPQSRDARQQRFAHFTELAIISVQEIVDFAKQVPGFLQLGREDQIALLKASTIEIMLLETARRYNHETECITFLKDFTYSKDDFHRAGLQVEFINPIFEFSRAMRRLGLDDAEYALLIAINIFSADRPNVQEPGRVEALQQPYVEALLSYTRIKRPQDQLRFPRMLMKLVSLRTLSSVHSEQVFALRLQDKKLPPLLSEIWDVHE
Format: functional, cell-based.

A short description of assay [6]: HepG2 cell cytotoxicity, dose response, cytotoxicity control, ATP luminescence, cherry-pick, activator set 2 (AID 1053143). It counts as functional, cell-based.
Assay [7] deals with Neurotensin receptor type 1 (Homo sapiens, UniProt P30989). It counts as functional.
A short description of assay [8]: Shn3 3'UTR reporter inhibitors, dose response, cell-based, Clone20 osteoblasts, firefly luciferase, cherry-picked (AID 624132).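 Note: firefly luciferase luminescence from reporter carrying the Shn3 3'UTR in osteoblasts.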 Format: functional.
For a further assay, the target named is T2, Streptokinase A (Streptococcus pyogenes serotype M1, UniProt P10520).
T2 sequence (P10520 whole entry): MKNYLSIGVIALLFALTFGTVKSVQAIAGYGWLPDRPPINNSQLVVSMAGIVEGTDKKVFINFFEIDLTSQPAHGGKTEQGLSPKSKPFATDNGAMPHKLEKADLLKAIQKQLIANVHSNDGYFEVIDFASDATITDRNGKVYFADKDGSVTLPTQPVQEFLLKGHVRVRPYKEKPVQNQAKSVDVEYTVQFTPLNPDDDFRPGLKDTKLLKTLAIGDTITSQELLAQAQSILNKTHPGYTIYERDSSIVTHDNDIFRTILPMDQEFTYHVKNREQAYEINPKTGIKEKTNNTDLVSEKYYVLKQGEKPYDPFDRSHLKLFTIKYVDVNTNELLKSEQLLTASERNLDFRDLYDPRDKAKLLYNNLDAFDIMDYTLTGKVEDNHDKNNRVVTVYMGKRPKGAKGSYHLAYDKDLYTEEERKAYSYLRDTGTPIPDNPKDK
Nature of the assay: S. pyogenes streptokinase expression inhibitors, potency, dose response, plasminogen activation absorbance, OD405 (AID 1914).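 Note: secreted streptokinase activity via plasminogen activation per viability signal from cell pellet.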 It counts as functional, Streptococcus pyogenes M1 GAS.

Assay [9] concerns Streptococcus sp. 'group A'. The experiment in a line: growth inhibition of control SK(-) GAS strain, dose response, counter-screen for streptokinase expression inhibitor project, luminescence, kanamycin, BacTiterGlo, confirmation (AID 1900). It counts as functional, organism-based.
The nature of assay [10]: reduction of Shn3 3'UTR firefly luciferase signal, dose response, Schnurri-3 inhibitor project, cell-based, Clone20 osteoblasts, cherry-pick, set 2 (AID 720490).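 Note: actives lower the luminescence signal as inhibitors.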 It counts as functional.
A further assay has as its system Streptococcus. Nature of the assay: Group A Streptococcus viability loss, dose response, counter-screen for streptokinase expression inhibitor project, luminescence, BacTiterGlo (AID 1915).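 Note: potency for reduction of bacterial viability or growth.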 Format: functional, organism-based.
A short description of assay [11]: HepG2 cell cytotoxicity, dose response, cytotoxicity control for Shn3 inhibitor project, CellTiter-Glo, cherry-picked (AID 624134). Format: functional, cell-based.
Assay [12] in a line: Luminescence Cell-Based Dose Retest to Confirm Inhibitors of Cancer Stem Cells. [Related pubchem assays (depositor defined):AID2717, AID2721]. Conditions: Homo sapiens. It counts as functional.
A short description of assay [13]: PAX5 activity inhibitors, dose response, selectivity assay for PAX8 inhibitor project, cell-based, plate reader, dry powder samples (AID 743047).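 Note: HEK293 cells carrying a Pax5 driven CD19 promoter luciferase reporter; potency of inhibitors that lower reporter luminescence.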 Format: functional.
The nature of assay [14]: cytotoxicity in OVCAR4 cells, dose response, cytotoxicity control for PAX8 inhibitor project, cell-based, plate reader, dry powder, SA11 (AID 743150). It counts as functional. Conditions: OVCAR-4.
Assay [15] is described as follows: IGROV1 ovarian cancer cell cytotoxicity, dose response, PAX8 inhibitor project, plate reader, dry powder samples (AID 743043). It counts as functional, cell-based. To be noted: IGROV-1.
Another assay has as its target Paired box protein Pax-8 (Homo sapiens, UniProt Q06710). The experiment in a line: inhibitors of PAX8-driven TPO luciferase reporter, dose response, RMG-I cells, cherry-pick (AID 687027).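 Note: luciferase reporter driven by Pax8 target thyroperoxidase promoter measured by SteadyGlo luminescence.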 It counts as functional, cell-based. (In general: Reporter assays use an easily measured gene product as a stand-in for the process of interest.)
The nature of assay [16]: cytotoxicity in OV-90 ovarian cancer cells, dose response, PAX8 inhibitor project, cell-based, plate reader, dry powder, SA8 (AID 743149). Format: functional.
The nature of assay [17]: cytotoxicity in COV362 ovarian cancer cells, dose response, cytotoxicity control for PAX8 inhibitor project, cell-based, plate reader, dry powder, SA12 (AID 743144). Format: functional.
Assay [18] can be described thus: cytotoxicity dependent on PAX8, dose response, cell-based, plate reader, dry powder (AID 743049). Format: functional.
Assay [19] can be described thus: PAX2 cell-based inhibition, dose response, selectivity assay for PAX8 inhibitor project, plate reader, dry powder samples (AID 743048).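 Note: HEK293 cells carrying a WT1 promoter luciferase reporter driven by expressed Pax2; potency is for inhibition of Pax2 driven reporter signal.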 Format: functional.
Assay [20] can be described thus: NIH:OVCAR-3 ovarian cancer cell cytotoxicity, dose response, PAX8 inhibitor project, plate reader, dry powder samples (AID 743044). Format: functional, cell-based.
Assay [21] can be described thus: cytotoxicity in COV434 cells, dose response, cytotoxicity control for PAX8 inhibitor project, cell-based, plate reader, dry powder, SA7 (AID 743145). It counts as functional.
Assay [22] deals with T3, Polyadenylate-binding protein 1 (Homo sapiens, UniProt P11940). The experiment in a line: PABP1 MLLE–PAM2 interaction inhibitors, dose response, miRNA deadenylation inhibitor project, biochemical, fluorescence polarization, Cy5-PAM2 peptide, secondary (AID 602260). It counts as functional. Conditions: read-out: IC50_Mean. (Fluorescence polarisation rises when a labelled molecule tumbles more slowly, as on binding a larger partner.)

In assay [23] the target is T3, Polyadenylate-binding protein 1. Nature of the assay: PABP1 MLLE–PAM2 binding inhibitor potency, dose response, biochemical, fluorescence polarization, FITC-PAM2 peptide (AID 602259). To be noted: read-out: IC50_Mean. It counts as functional.
The next assay concerns the target T4, Protein RecA (Mycobacterium tuberculosis, UniProt P9WHJ3).
T4 sequence (P9WHJ3 whole entry): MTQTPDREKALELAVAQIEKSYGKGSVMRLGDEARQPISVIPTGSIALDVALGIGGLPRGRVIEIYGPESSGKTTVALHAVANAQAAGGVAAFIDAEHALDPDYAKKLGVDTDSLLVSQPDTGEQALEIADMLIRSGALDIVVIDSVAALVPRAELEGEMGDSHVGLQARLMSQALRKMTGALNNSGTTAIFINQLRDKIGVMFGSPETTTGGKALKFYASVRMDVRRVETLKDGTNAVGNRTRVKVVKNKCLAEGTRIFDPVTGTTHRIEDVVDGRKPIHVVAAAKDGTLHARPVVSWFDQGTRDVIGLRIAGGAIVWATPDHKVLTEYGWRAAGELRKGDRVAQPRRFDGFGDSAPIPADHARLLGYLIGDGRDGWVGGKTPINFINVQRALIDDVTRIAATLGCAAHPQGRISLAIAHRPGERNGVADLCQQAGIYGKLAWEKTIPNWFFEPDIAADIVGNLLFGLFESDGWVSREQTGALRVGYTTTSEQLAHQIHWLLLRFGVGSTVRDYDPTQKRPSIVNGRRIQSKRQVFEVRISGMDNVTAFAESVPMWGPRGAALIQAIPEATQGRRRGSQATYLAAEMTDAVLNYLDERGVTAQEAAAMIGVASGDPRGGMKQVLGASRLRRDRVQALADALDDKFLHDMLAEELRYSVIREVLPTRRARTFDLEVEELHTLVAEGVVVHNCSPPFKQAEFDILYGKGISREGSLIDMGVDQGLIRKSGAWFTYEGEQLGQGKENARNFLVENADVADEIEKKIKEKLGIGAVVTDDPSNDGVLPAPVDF
Nature of the assay: Fluorescence Cell-Free Homogeneous Dose Retest to Identify Inhibitors of RecA-Intein Splicing Activity. [Related pubchem assays (depositor defined):AID2097, AID2223, AID489010, AID492950]. Format: functional.

Assay [24] in a line: THP-1 cell cytotoxicity, dose response, cytotoxicity control for Vif-APOBEC3G degradation inhibitor project, THP-1 cells (AID 1117359). To be noted: Human immunodeficiency virus 1, THP-1. Format: functional.

Active and inactive are the calls of the source.

Broadly, the EC50 is the concentration at which the effect is half-maximal. As a reminder, the AC50 is the concentration at which the activity in the assay is half-maximal. The term CC50 denotes the concentration at which the toxic effect on the cells reaches its halfway point.

Chain of Disintegrin and metalloproteinase domain-containing protein 17 (P78536 whole entry, the tested form may be a part): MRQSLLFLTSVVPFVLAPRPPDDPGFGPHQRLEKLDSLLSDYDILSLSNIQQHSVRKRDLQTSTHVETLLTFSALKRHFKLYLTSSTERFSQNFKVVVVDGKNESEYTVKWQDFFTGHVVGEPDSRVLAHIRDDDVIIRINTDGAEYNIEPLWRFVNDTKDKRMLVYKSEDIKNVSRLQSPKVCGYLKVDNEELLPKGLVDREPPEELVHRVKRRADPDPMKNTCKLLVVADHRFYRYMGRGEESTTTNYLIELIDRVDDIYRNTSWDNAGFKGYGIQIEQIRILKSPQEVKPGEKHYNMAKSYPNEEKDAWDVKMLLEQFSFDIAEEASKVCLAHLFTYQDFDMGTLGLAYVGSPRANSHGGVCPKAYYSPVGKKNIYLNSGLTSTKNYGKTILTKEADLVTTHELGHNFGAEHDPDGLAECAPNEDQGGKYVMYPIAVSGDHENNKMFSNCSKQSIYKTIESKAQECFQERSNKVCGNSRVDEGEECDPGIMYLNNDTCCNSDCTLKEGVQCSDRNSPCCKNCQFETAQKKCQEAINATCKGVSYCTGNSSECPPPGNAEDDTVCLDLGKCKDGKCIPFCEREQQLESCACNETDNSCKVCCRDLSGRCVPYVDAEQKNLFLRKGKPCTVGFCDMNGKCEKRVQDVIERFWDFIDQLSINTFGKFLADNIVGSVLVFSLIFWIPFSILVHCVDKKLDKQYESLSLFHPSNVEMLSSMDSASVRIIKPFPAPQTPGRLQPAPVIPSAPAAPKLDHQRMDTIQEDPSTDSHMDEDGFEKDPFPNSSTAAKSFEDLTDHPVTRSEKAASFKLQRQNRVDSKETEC
T3 sequence (P11940 whole entry): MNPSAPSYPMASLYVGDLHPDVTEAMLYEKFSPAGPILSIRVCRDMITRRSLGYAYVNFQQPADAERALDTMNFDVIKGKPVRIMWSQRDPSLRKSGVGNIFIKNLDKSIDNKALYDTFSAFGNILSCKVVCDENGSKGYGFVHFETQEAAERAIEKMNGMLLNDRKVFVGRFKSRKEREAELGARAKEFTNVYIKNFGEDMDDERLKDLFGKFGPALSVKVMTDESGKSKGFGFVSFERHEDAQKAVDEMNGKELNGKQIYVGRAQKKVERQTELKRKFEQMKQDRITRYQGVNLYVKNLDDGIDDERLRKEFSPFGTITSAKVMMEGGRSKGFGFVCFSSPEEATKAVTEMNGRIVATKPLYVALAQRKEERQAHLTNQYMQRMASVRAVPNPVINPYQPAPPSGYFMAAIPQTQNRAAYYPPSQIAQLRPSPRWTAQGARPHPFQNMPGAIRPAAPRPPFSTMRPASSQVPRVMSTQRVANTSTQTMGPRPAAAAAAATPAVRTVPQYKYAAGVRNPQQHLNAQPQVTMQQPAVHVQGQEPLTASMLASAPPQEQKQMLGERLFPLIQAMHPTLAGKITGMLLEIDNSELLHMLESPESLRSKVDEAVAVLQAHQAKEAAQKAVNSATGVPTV
Chain of Paired box protein Pax-8 (Q06710 whole entry): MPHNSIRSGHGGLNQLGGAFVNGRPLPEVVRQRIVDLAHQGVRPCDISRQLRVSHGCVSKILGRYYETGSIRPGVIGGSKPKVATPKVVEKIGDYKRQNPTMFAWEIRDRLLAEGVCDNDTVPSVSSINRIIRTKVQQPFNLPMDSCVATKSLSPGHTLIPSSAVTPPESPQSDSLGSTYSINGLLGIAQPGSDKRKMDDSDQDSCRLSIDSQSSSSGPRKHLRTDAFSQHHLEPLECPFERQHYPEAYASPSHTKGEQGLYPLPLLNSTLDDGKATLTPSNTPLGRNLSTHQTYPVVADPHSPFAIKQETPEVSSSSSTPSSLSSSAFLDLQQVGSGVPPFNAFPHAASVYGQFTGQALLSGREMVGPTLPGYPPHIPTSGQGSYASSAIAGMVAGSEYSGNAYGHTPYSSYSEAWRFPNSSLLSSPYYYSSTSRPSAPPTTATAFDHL
Chain of 1-phosphatidylinositol 4,5-bisphosphate phosphodiesterase gamma-1 (P19174 whole entry): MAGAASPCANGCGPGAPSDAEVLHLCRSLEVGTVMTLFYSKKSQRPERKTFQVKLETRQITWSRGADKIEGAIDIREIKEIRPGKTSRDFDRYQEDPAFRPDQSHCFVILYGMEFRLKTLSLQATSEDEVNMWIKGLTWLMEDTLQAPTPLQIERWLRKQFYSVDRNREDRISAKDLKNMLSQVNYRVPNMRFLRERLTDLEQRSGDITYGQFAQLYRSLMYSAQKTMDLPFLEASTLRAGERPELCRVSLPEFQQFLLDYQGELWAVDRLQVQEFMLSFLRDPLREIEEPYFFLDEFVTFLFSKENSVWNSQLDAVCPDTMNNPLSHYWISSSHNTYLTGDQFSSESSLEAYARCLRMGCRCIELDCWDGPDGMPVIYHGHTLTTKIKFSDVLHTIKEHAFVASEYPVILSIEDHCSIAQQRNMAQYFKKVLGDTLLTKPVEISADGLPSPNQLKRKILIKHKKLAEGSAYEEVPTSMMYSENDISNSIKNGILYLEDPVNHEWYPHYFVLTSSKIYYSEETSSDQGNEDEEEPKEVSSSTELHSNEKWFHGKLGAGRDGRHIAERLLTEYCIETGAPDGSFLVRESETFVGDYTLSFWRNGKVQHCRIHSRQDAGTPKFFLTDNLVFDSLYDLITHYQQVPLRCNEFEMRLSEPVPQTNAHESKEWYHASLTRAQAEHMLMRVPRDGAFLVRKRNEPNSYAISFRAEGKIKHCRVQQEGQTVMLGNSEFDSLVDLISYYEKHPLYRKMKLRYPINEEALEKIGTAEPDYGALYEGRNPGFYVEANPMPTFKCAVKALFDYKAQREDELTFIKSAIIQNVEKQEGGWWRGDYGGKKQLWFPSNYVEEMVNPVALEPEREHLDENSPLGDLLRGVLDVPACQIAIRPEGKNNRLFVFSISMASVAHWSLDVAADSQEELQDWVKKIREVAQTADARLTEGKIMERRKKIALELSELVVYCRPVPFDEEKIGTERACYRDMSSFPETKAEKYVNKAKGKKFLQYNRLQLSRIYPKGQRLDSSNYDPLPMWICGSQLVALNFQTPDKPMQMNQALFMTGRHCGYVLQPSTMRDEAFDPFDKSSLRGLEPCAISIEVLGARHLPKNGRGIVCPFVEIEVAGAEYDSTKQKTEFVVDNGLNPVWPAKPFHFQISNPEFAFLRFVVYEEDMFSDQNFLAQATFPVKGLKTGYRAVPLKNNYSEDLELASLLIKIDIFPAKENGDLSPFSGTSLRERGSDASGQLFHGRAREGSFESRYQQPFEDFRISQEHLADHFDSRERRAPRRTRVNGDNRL
Chain of Neurotensin receptor type 1 (P30989 whole entry): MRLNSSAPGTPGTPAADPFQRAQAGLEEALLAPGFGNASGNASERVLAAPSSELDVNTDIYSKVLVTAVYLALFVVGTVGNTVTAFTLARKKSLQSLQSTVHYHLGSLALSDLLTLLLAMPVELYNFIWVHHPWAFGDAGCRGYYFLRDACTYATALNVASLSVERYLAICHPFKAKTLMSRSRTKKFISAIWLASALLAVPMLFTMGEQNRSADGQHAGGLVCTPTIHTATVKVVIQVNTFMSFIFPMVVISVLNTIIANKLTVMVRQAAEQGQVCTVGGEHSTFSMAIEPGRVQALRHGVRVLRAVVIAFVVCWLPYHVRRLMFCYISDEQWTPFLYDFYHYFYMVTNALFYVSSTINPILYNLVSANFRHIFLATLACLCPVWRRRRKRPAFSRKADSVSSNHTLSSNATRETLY
Chain of 1-phosphatidylinositol 4,5-bisphosphate phosphodiesterase beta-3 (Q01970 whole entry, the tested form may be a part): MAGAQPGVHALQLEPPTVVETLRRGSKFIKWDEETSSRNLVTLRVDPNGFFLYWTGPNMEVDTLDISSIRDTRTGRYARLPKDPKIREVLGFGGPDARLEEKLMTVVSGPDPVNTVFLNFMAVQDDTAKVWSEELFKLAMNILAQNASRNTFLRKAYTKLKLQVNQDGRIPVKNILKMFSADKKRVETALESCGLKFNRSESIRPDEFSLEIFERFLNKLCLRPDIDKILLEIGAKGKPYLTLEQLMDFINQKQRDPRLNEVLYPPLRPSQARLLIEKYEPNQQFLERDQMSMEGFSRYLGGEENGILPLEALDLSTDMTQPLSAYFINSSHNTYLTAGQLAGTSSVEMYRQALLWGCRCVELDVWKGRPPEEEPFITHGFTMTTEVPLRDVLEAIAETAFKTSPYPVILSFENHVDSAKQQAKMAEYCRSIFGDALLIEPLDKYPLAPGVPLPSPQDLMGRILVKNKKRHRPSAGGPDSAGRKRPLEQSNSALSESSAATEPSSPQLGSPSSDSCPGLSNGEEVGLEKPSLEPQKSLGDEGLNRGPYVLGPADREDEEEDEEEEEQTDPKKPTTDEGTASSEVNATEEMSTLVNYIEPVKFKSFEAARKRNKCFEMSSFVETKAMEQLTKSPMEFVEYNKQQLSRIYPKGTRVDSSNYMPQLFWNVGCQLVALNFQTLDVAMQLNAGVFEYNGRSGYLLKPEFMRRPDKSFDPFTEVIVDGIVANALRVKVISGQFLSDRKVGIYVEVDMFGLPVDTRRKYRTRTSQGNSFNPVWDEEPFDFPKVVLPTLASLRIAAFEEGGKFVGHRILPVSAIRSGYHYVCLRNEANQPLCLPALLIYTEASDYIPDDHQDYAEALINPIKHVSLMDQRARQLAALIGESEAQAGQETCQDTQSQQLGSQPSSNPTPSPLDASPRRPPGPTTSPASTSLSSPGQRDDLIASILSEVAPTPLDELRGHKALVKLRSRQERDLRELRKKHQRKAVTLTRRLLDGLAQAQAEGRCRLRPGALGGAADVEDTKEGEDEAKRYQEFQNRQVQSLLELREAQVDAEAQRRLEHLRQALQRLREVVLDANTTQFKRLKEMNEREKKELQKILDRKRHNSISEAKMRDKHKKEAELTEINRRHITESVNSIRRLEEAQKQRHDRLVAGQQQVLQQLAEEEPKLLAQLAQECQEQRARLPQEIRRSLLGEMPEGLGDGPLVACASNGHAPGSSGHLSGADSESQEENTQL

Consider `CSc1cccc(NC(=O)CCCOc2ccc(Cl)cc2C)c1`, for which the IC50 in [1] was 65.6 µM (inactive); in [2], > 69.5 µM (inactive).

As for `Cc1cc(C(=O)NNC(=S)NCC(C)C)cs1`, the IC50 in assay [3] and in [4] was > 122 µM (inactive) each time.

As to `COc1cccc(-c2nc(-c3ccc(Br)o3)no2)c1`, the EC50 in assay [5] is > 67.5 µM (inactive). For the same molecule, the AC50 in [6] was > 52 µM (inactive).

For `Cc1ccc(C(=O)Nc2nnc(NC(=S)Nc3ccccc3)s2)cc1`, the EC50 in assay [7] was 7.59 µM (active). Further, in assay [2], the IC50 is > 69.5 µM (inactive).

For `Cc1cccc(NS(=O)(=O)c2ccc(C3CCCCC3)cc2)c1`, the AC50 in [8] is 5.13 µM (active); in [10], 4.66 µM (active); in assay [11] it was > 70 µM (inactive); in assay [12] it was 5.27 µM (active). In addition, the EC50 on Streptokinase A was 5.02 µM (active); in assay [9], 6.43 µM (active); with Streptococcus, 6.98 µM (active).

Turning to `CCOC(=O)c1cnc(SCCc2ccccc2)nc1N`, in assay [5], the EC50 is > 67.5 µM (inactive).

For `Cn1c(CCN2CCCC2)nc2cc(NS(=O)(=O)c3ccc(Cl)cc3)ccc21`, the AC50 in [13] was 52.5 µM (active); in [14] it was 16.8 µM (active); in assay [15], 26.9 µM (active); at Paired box protein Pax-8, 6.57 µM (active); in assay [16], > 100 µM (inactive); in assay [17] it was 20.2 µM (active). Moreover, the AC50 was 12.8 µM (active) in assay [18], 72.5 µM (active) in assay [19], 18.9 µM (active) in [20] and 46.1 µM (active) in [21].

For `Cc1ccc(C(=O)N/N=C\c2cc(Br)c(Br)o2)cn1`, the IC50 in [22] is > 66 µM (inactive); in [23], 46.3 µM (inactive). At Protein RecA, the concentration giving a half-maximal response (EC50) is > 380 µM (inconclusive). Moreover, the cytotoxic concentration (CC50) in assay [24] is 18.2 µM (active).

Source of the values: ChEMBL document CHEMBL1201862, “PubChem BioAssay data set” (2004).
